According to patent US9708370B2, “Azapeptides as CD36 binding compounds” (VALORISATION-RECHERCHE, LIMITED PARTNERSHIP, priority 2007, dated 2017):
Read-outs that look alike come from different tables or passages of the source. Starred links: 1 amine or outer side, 2 acyl side, 3 side chain; linkers in the order of their positions; H or OH if unused. Non-standard residues stand in square brackets, D forms with d. Residues, ends and D or L forms follow the SMILES beside them. *: point of attachment. azaTyr = O=C(N(Cc1ccc(O)cc1)N[*:1])[*:2]; azaLeu = CC(C)CN(N[*:1])C(=O)[*:2]; Hydrocinnamoyl = O=C(CCc1ccccc1)*

Key:
[1] = molecular target: CD36 (Rattus norvegicus (Rat), UniProt Q07969); test: CD36 receptor covalent photolabelling binding assay, competition with [125I]Tyr-Bpa-Ala-hexarelin on rat cardiac membranes; conditions: for binding activity/affinity at CD36 in words: compared with parent peptide GHRP-6 or hexarelin
Procedure: The hearts from Sprague Dawley rats (300 g-325 g) from Charles River, used as a source of cardiac membranes, were prepared as follows: the heart was washed with ice-cold saline, and fatty and connective tissue was removed. The tissue was cut into small pieces with scissors and placed in a Sorvall centrifuge tube containing 5 ml/g of fresh tissue of Buffer A (10 mM NaHCO3, 5 mM NaN3, 10 μM Pefabloc, 0.1 μM Aprotinin, 1 μM Pepstatin A, 1 μM Leupeptin, pH 7.0). The suspension was homogenized with a Polytron at low speed, 3×15 sec. The homogenate was centrifuged at 8 700×g for 20 min and the supernatant was put on ice. The pellet was resuspended and homogenized with a Glass-teflon Potter by 5 strokes. The homogenate was centrifuged at 8 700×g for 10 min and this supernatant was combined with the first supernatant. The supernatant fluid was centrifuged at 35 000×g for 20 min, yielding a second pellet fraction that was suspended thoroughly in a glass homogenizer with a Teflon pestle in 20 ml/g of fresh tissue of Buffer B (20 mM Tris-maleate, 0.6M KCl, pH 6.8). The resulting suspension was centrifuged again at 35 000×g for 60 min. The third pellet fraction was resuspended thoroughly in a glass homogenizer with a Teflon pestle in 20 ml/g of fresh tissue of Buffer C (10 mM Tris/HCl buffer pH 7.4) followed with another centrifugation at 35 000×g for 60 min. The harvested precipitate was then suspended in a small volume (1-2 ml/g of fresh tissue) of 50 mM Tris/HCl buffer pH 7.4) containing 2 mM EGTA. The resulting membrane preparation was frozen at −80° C. Protein concentration was determined with bicinchoninic acid (BCA) method, using BSA as standard.
The iodination procedure was performed in the darkness. […] The reaction was started by adding 5 ul (3 nmol) of H2O2. The incubation was carried out at 22° C. for 5 min. The addition of H2O2 was repeated twice with 5 min incubation each time. The reaction was stopped with the addition of 1.4 ml of 0.1% TFA. The iodinated peptide was purified on a reverse-phase Vydac C18 column with a 60 min linear gradient (1 ml/min) from 20% to 50% acetonitrile (90%) in 0.1% TFA (10%).
Nonspecific binding was defined as binding not displaced by 50 μM corresponding peptide. All peptide containing solutions were diluted in Buffer B. Buffer A and B were degassed under vacuum, and used in capped tubes in order to minimize lipid peroxydation. Before the incubation period, all tubes were put under a low flow of nitrogen. All material was kept on ice and the binding assay was performed in darkness. After an incubation period of 60 min at 22° C. […] After centrifugation at 12 000×g for 15 minutes, the pellets were resuspended in 150 μl of sample buffer (62 mM Tris-HCl, pH 6.8, 2% SDS, 10% glycerol, 15% 2-mercapto-ethanol, and 0.05% bromophenol blue), and boiled for 5 min prior to being subjected to electrophoresis. Proteins (200 μg/100 μl) were separated on 7.5% SDS-PAGE (45 V overnight). The gels resulting from SDS/PAGE were fixed, colored in Coomassie Brilliant Blue R-250, dried, exposed to a storage phosphor intensifying screen (Amersham Biosciences), and analysed by using a Typhoon PhosphorImager (Amersham Biosciences) and ImageQuant 5.0 software to establish competition curves. Protein bands were quantified by densitometry. The covalent binding signal of 87 kDa was analyzed by densitometry using Typhoon Phospholmager™ (Typhoon, Amersham Biosciences) and ImageQuant 5.0® software to set competition curves.
Specific binding activities were defined as the ratio of the density of the protein band to that of a non-specific band. Results are expressed as the percentage of the density of the […] to that of the total binding band.

[2] = system: vascular sprouting of aortic endothelium (aortic rings); test: Inhibition of microvascular sprouting from Matrigel-embedded aortic explants; assay type: cell-based, mice; conditions: preliminary data; compared with GHRP-6
Source text: FIG. 1 illustrates disruption of vascular sprouting of aortic endothelium by azapeptide compound DBG178. Sprouting aortic endothelium (Von Willebrand factor positive) expressing CD36 is shown in the upper row of FIG. 1a. Vascular sprouting of aortic rings from C57BL/6 and CD36 null mice in the presence of DBG 178 at 10^−7M is shown in the lower row of FIG. 1a. Histograms of microvascular sprouts areas (mean±s.e.m) from aortic explants of C57BL/6 and CD36 null mice exposed to DBG concentrations from 10^−8 to 10^−6 M p<0.01 compared with control (Ctl) is shown in FIG. 1b.
Aortas were excised from 10-week-old male C57/Bl6+/+ and CD36−/− mice of C57/Bl6 background. The fibroadipose tissue was removed and aortas were sectioned into 2-mm-long cross-sections. The +/+ and −/− rings were covered by 50 μl of Matrigel and cultured for 4 days in EGM-2 medium (Clonetics Corp.). Explants were then exposed to vehicle alone or in presence of an azapeptide prototype DBG178 at the indicated concentrations (10^−8 to 10^−6 M) from day 4 to day 6 of culture in EGM-2 medium. Pictures of each individual explant were taken at day 4 and day 6 and EC growth was measured as the surface covered at day 6 minus the surface covered at day 4 Data were subject to analysis of variance (ANOVA) followed by Dunnet's post test to test for differences among groups. Outgrowing cells were characterized by double-labelling with monoclonal vWF antibody (1:100, Dako) and polyclonal CD36 (1:100, Santa Cruz) after acetone fixation using their respective alexa coupled secondary antibodies.

[3] = molecular target: human GHS-R1a (Homo sapiens (Human), UniProt Q92847); test: GHS-R1a binding assay, competition with 125I-ghrelin on membranes of LLC-PK1 cells expressing human GHS-R1a
[4] = Table 6, read-out: IC50 Binding CD36
[5] = Table 5, read-out: IC50 Binding GHS-R1a

Sequence of human GHS-R1a (Q92847 whole entry): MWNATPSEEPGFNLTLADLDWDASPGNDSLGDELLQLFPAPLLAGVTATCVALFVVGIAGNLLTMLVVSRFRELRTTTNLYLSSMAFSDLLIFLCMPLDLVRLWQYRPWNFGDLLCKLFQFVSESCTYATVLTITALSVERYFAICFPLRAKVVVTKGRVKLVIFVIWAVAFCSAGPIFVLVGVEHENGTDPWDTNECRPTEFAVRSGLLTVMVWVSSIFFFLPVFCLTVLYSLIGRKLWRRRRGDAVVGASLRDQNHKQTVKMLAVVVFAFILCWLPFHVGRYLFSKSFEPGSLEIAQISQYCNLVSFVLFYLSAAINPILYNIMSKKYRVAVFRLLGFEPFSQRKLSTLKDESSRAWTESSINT
Sequence of CD36 (Q07969 whole entry): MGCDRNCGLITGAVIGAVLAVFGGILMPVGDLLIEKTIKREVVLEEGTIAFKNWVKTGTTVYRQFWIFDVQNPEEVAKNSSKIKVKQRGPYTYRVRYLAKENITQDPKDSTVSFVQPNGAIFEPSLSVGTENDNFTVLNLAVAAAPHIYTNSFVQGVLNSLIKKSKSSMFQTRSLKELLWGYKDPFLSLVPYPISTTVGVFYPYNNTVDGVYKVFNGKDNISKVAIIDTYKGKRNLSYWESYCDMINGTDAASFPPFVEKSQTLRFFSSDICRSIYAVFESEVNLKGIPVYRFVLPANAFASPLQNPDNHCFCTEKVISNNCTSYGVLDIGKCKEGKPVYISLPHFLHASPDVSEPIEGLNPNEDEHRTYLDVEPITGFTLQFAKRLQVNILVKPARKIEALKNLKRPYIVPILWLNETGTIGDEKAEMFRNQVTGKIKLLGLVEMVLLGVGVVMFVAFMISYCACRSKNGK

Compound	IC50 ([1]; Table 3, rat cardiac membranes, [125I]Tyr-Bpa-Ala-hexarelin as radioligand, read-out: IC50, binding affinity of aza peptide derivatives towards CD36)	binding activity/affinity at CD36 in words [1]	ex vivo inhibition of neovascularization in aortic rings [2]	IC50 ([3]; Table 4, LLCPK-1 membranes overexpressing GHS-R1a, radioiodinated (1-28) rat ghrelin as tracer, read-out: EC50 (text: IC50 values from competition curves in GHS-R1a radioreceptor assay))	IC50 [1, 4]	IC50 [3, 5]	binding affinity for GHS-R1a receptor in words ([3]; compared with GHRP-6)
CC(C)CN(NC(=O)[C@@H](Cc1c[nH]c2ccccc12)NC(=O)[C@@H](N)Cc1cnc[nH]1)C(=O)N[C@@H](Cc1c[nH]c2ccccc12)C(=O)N[C@H](Cc1ccccc1)C(=O)N[C@@H](CCCCN)C(N)=O [DBG201-A, His-D-Trp-azaLeu-Trp-D-Phe-Lys-NH2] (H-H[dW][azaLeu]W[dF]K-NH2)	2.89 µM	retained significant activity similar to the parent peptide	most potent inhibitory effect	1.2 µM	–	–	–
C[C@H](NC(=O)[C@@H](Cc1c[nH]c2ccccc12)NC(=O)[C@@H](N)Cc1ccccc1)C(=O)NN(Cc1ccc(O)cc1)C(=O)N[C@H](Cc1ccccc1)C(=O)N[C@@H](CCCCN)C(N)=O [ZS554-F29, Phe-D-Trp-Ala-azaTyr-D-Phe-Lys-NH2] (H-F[dW]A[azaTyr][dF]K-NH2)	–	–	–	–	11.8 µM	> 10 µM	–
C[C@H](N)C(=O)N[C@H](Cc1c[nH]c2ccccc12)C(=O)N[C@@H](C)C(=O)NN(Cc1ccc(O)cc1)C(=O)N[C@H](Cc1ccccc1)C(=O)N[C@@H](CCCCN)C(N)=O [ZS555-F40, Ala-D-Trp-Ala-azaTyr-D-Phe-Lys-NH2] (H-A[dW]A[azaTyr][dF]K-NH2)	–	without major change	–	–	2.95 µM	> 10 µM	decreased drastically
C[C@H](NC(=O)[C@@H](Cc1c[nH]c2ccccc12)NC(=O)CCc1ccccc1)C(=O)NN(Cc1ccc(O)cc1)C(=O)N[C@H](Cc1ccccc1)C(=O)N[C@@H](CCCCN)C(N)=O [ZS556, Hydrocinnamyl-D-Trp-Ala-AzaTyr-D-Phe-Lys-NH2] (Hydrocinnamoyl-[dW]A[azaTyr][dF]K-NH2)	–	–	–	–	32.5 µM	> 10 µM	–
